Measured values taken from patent US9476030B2, “Self-renewing endodermal progenitor lines generated from human pluripotent stem cells and methods of use thereof” (The Children's Hospital of Philadelphia, priority 2011, dated 2016).

Key:
Assay type in all cases: cell-based, human
H9-EP cells [1] = assay: EP cell maintenance: cell number / cell growth under various media conditions; settings: for proliferation of EP cells (total cell number after 7-day expansion): FIG. 4B
Experimental: (§1) FIG. 4. Cytokine Requirements and Critical Signaling Pathways for EP Cell Maintenance and Differentiation. […] In each condition, one of the four cytokines was omitted or inhibitors of signaling pathways were added. The H9-EP cell line was grown for 1 week in optimal EP Basic Media (BASIC) or in the absence of BMP4, or bFGF or VEGF. (A) Flow cytometric analyses of SOX17 versus PDX1, or SOX17 versus FOXA1 are shown. […] (C-D) To evaluate the role of TGF signaling in EP cell maintenance and differentiation, the small molecule inhibitor SB431542 was added to EP media. (C) H9-EP cells were cultured in normal EP media (BASIC) or in EP media supplemented with SB431542 (6 M) either in the presence (+SB) or the absence of BMP4 (−BMP+SB). Cells were harvested at day 6. Flow cytometric analyses of SOX17 versus FOXA1 are shown. (D) H9-EP cells were cultured in the presence (SB, red circles) or the absence (BASIC, blue squares) of SB431542 for 3 passages and cell growth analyzed by cell counts at each passage. […] Cells were harvested at day 14 of differentiation, and were compared to those derived from SB-untreated group (BASIC). Flow cytometric analyses of C-peptide versus Glucagon are shown.
Cells were fed every two days, and were split at 1×10^6/58 cm^2 every 6 days by trypsinization. The small molecule inhibitors PD0325901 (Sebolt-Leopold et al., 2004; Ying et al., 2008), PD173074 (Mohammadi et al., 1998) and SB431542 (Laping et al, 2002; Inman et al., 2002) were purchased from Cayman Chemicals and Stemgent, respectively.

H9-EP and iPS2-EP cells = assay: Pancreatic differentiation of EP cells after culture with SB431542; settings: EP cells cultured with SB431542 for 5 days, then differentiated, day 14, FIG. 4E
Experimental: FIG. 4. Cytokine Requirements and Critical Signaling Pathways for EP Cell Maintenance and Differentiation. […] In each condition, one of the four cytokines was omitted or inhibitors of signaling pathways were added. The H9-EP cell line was grown for 1 week in optimal EP Basic Media (BASIC) or in the absence of BMP4, or bFGF or VEGF. (A) Flow cytometric analyses of SOX17 versus PDX1, or SOX17 versus FOXA1 are shown. […] (C-D) To evaluate the role of TGF signaling in EP cell maintenance and differentiation, the small molecule inhibitor SB431542 was added to EP media. […] Cells were harvested at day 6. Flow cytometric analyses of SOX17 versus FOXA1 are shown. […] Cells were harvested at day 14 of differentiation, and were compared to those derived from SB-untreated group (BASIC). Flow cytometric analyses of C-peptide versus Glucagon are shown. […] (2011), was modified by omitting the first step, and by adding-secretase inhibitor X (Calbiochem, 2 M) from day 8 to day 12 of differentiation, as well as by adding human insulin (Sigma, 800 pM) and nicotinamide (Sigma, 10 mM) from day 10 and onwards. […] Mouse Wnt3a was supplemented to the step 2 media at 3 ng/ml. From day 10 and onwards, the medium was alternated every day between high dextrose (60 mM) and low dextrose (20 mM). […] Insulin secretion was calculated based on the total cell number and the percentage of c-peptide+ cells of each experiment. […]

H9-EP cells [2] = assay: Flow cytometric analysis of SOX17 / PDX1 / FOXA1 in EP cells under various media conditions; design: SOX17 expression in EP cells: dose or concentration left out as unconfirmed
Experimental: as §1
Single cell suspensions were obtained by dissociating day 5 transient endoderm, EP cell cultures, or EP cell differentiation cultures with 0.25% trypsin at 37° C. for 3-5 minutes. Cell surface antigen staining was performed in IMDM with 10% fetal calf serum. For intracellular staining, cells were fixed with 1.6% paraformaldehyde (Electron Microscopy Sciences) at 37 C for 20 minutes, and then washed twice with PBS+1% BSA. The fixed cells were permeabilized and stained in 1× Permeabilization Wash Buffer (BioLegend, 421002). The stained cells were analyzed with the BD FACS Canto II Flow Cytometer (BD Biosciences), and the data was analyzed using the Flowjo software (TreeStar). The sources and concentrations of primary, secondary antibodies and isotype controls are listed below.

[3] = withdrawal of the cytokine from EP basic media
[4] = inhibitor of FGF/Ras/MEK pathway added to EP media
[5] = withdrawal of the cytokine, within one week, FIG. 4A

## bFGF: human cytokine in EP basic medium (10 ng/ml)
H9-EP cells [1]; [3]
  proliferation of EP cells (total cell number after 7-day expansion): reduced proliferation dramatically

## CCN(CC)CCCCNc1ncc2cc(-c3cc(OC)cc(OC)c3)c(NC(=O)NC(C)(C)C)nc2n1 [PD173074]
H9-EP cells [1]; [4]
  proliferation of EP cells (total cell number after 7-day expansion): reduced proliferation dramatically

## VEGF
H9-EP cells [1]; [3]
  proliferation of EP cells (total cell number after 7-day expansion): significant decrease in proliferation

## O=C(NOC[C@H](O)CO)c1ccc(F)c(F)c1Nc1ccc(I)cc1F [PD0325901]
H9-EP cells [1]; [4]
  proliferation of EP cells (total cell number after 7-day expansion): reduced proliferation dramatically

## EGF: human cytokine in EP basic medium (10 ng/ml) (NSDSECPLSHDGYCLHDGVCMYIEALDKYACNCVVGYIGERCQYRDLKWWELR; UniProt P01133 971-1023, looked up)
H9-EP cells [1]; [3]
  proliferation of EP cells (total cell number after 7-day expansion): significant decrease in proliferation

## NC(=O)c1ccc(-c2nc(-c3ccc4c(c3)OCO4)c(-c3ccccn3)[nH]2)cc1 [SB431542]
H9-EP and iPS2-EP cells
  differentiation of EP cells into pancreatic β-cells: inhibited differentiation into pancreatic β-cells
H9-EP cells [2]; EP media supplemented with SB431542, harvested at day 6, FIG. 4C
  SOX17 expression in EP cells: completely abolished SOX17 expression
H9-EP cells [1]; SB431542 added to EP media, FIG. 4D
  proliferation of EP cells (relative cell growth over 3 passages): drastically suppressed proliferation

## BMP4: human cytokine in EP basic medium (50 ng/ml)
H9-EP cells [2]; [5]
  PDX1 expression in EP cells: up-regulation of PDX1
  SOX17 expression in EP cells: almost complete loss of SOX17 expression
